Results on two molecules are retold here after US8084602B2, “Porphyrin derivatives and their use in photodynamic therapy” (Destiny Pharma Limited, priority 2002, dated 2011).

The subject of one series is E. coli ATCC 25922. As to the kind of experiment: Cell survival (colony forming unit) with or without illumination. The note with it: for Log reduction: E. coli. The class given is cell-based, Escherichia coli. Here is the method:
(§1) The toxic effects of exemplary compounds of the invention against two bacterial strains, the Gram negative bacterium Escherichia coli (strain ATCC 25922) and the Gram positive bacterium Staphylococcus aureus (methicillin-resistant strain ATTC BAA-44), were evaluated by measuring the extent of growth inhibition (bacteriostatic effect) and growth […] (cytocidal effect) in the dark and upon light exposure. Initial compound screening was undertaken using white light [390-740 nm] (150 mW/cm^2) for various timepoints of a concentration of 3 μM (see Table 1). Further experiments were undertaken on those compounds identified from this initial screen using a light source emitting light at a wavelength between 417-420 nm at 15.2 mW/cm^2, 13.68 J/cm^2 (Waldmann Eclairage SA, France) (see Table 20.
(§2) For the further investigation of the exemplary compounds (Table 2), the following protocol was adopted: • (i) Bacteria (S. aureus BAA-44 and E. coli 25922) were grown in brain heart infusion (BHI) broth until they reached the stationary phase of growth. • (ii) The cells were harvested by centrifugation (3000 g for 15 min) with a table centrifuge, washed with 10 mM PBS at pH 7.4 containing 2.7 mM KCl and 0.14 M NaCl and suspended in PBS at an optical density of 0.7 at 650 nm corresponding to 10^8-10^9 cells/ml. • (iii) The bacteria, at the desired cell density (˜10^8 cells/ml) were incubated for 5 min in the dark with various concentrations of the exemplary compounds. • (iv) At the end of the incubation period the cells were washed three times with PBS, suspended in PBS, transferred into a 96-well microtitre plate (200 μl/well) and illuminated for 15 min with the Waldmann light source (15.2 mW/cm^2; 13.7 J/cm^2). The cells were illuminated from the bottom of the plate laying it on the glass cover of the lamp. • (v) After illumination, cell survival was determined by plating serially diluted aliquots of treated and untreated (i.e. no exemplary compound or light present) cells onto brain heart agar (BHA) and counting the number of colonies after 18-24 h incubation at 37° C.
(§3) the above colony forming unit (CFU) protocol was also used to investigate the photodynamic activity of very low concentrations of the compounds of the invention.

A short description of series [1]: Chemical stability, qualitative stress tests (HPLC, LC-MS). The class given is physicochemical. The note with it: solid, aqueous solution and PBS; 7 days each at 50° C., 70° C., 90° C. How it is done: The following HPLC methodology was established for the analysis of the exemplary compounds of the invention.
The method involves detection by UV at a wavelength of 420 nm, which is very specific for these compounds. In order to monitor impurities not related to the porphyrin structure (and therefore not absorbing at 420 nm) UV spectra of the whole chromatograms were also recorded between 200 nm and 700 nm by DAD (diode array detector) in certain experiments.
Qualitative stress tests were undertaken on the exemplary compounds of the invention. Analysis was undertaken by HPLC & LC-MS. The compounds were stress tested in solid form, in an aqueous solution and a solution made up in phosphate-buffered saline buffer. The samples were initially incubated for 7 days at 50° C. and a sample removed for testing. The samples were then incubated for a further 7 days at 70° C., samples removed as before and the samples incubated further for 7 days at 90° C. HPLC analysis of freshly prepared solutions was undertaken and compared to the samples after 7, 14 and 21 days incubation. A visual comparison of the chromatograms was then undertaken and the content of the main products and by-products as area percentage values determined (see FIG. 11).

Series [2] has as its system bacterial cells compared to human skin cells. Kind of series: Selectivity for bacteria compared to human skin cells. Format: cell-based. The note with it: at a dose of 0.01 μM. Here is the method: as §2
(§4) Test compounds were screened for toxicity against cultured human skin cells using normal human epidermal keratinocytes (NHEK) and normal human dermal fibroblasts (NHDF), purchased from CellSystems Biotechnologie GmbH, Germany.
The NHEK and NHDF cells were used between passages 3 and 10. The cells were seeded with 7.5 and/or 15×10^4 cells/well (microtitreplate) and allowed to attach overnight in an incubator (37° C., 5% CO2). After incubation with different concentrations of the selected photosensitisers, the cells were illuminated for fifteen minutes (Light source 236, Waldmann; 15.2 mW/cm^2, 13.7 J/cm^2) and then incubated for 24 hours in the dark.
(§5) Phototoxicity was tested by standard MTT-assay (Mossman et al., 1983, Immunological Methods 65:55-63). MTT is an indicator of metabolically active cells. Dependent on enzyme activity in mitochondria a colour reaction can be visualised, which can be measured by ELISA reader (540 nm). The cell viability data were normalised, i.e. the OD values of cells after PDT without photosensitisers were adjusted to one. Each experiment was repeated three times.

Series [3] has as its system normal human dermal fibroblasts (NHDF). Kind of series: Toxicity against human skin cells, MTT-assay. Format: cell-based. How it is done:
as §4
(§6) The NHEK and NHDF cells were used between passages 3 and 10. The cells were seeded with 7.5 and/or 15×10^4 cells/well (microtitreplate) and allowed to attach overnight in an incubator (37° C., 5% CO2). […]
as §5
Background: Tetrazolium dyes change colour on reduction, which living cells bring about.

Series [4] concerns normal human epidermal keratinocytes (NHEK). Kind of series: Toxicity against human skin cells, MTT-assay. Format: cell-based. Here is the method: as §4, §6, §5
For series [5], the system named is S. aureus ATCC BAA-44 (a methicillin resistant S. aureus). Kind of series: Cell survival (colony forming unit) with or without illumination. The note with it: for dark toxicity against BAA-44: absence of light, at the concentrations tested (FIG. 4); for Log reduction: S. aureus. Format: cell-based, Staphylococcus aureus. Here is the method:
as §1, §2, §3

The mark [6] stands for this setting: dark toxicity (no illumination), 0.01 μM.
[7] abbreviates: dark toxicity (no illumination), 10 μM.
Setting [8] is: photodynamic activity, 0.01 μM, illumination 15 min.
Where [9] appears, read: dark toxicity, 1 μM, no illumination.
Where [10] appears, read: dark toxicity, 10 μM, no illumination.
Setting [11] is: photodynamic activity (light toxicity), 0.01 μM, illumination 15 min.
The mark [12] stands for this setting: photodynamic activity (light toxicity), 0.1 μM, illumination 15 min.
[13] abbreviates: photodynamic activity (light toxicity), 1 μM, illumination 15 min.
Where [14] appears, read: dark toxicity (no illumination), 1 μM.
The mark [15] stands for this setting: photodynamic activity, 1 μM, illumination 15 min.

Regarding `CN(C)CCC[N+](C)(C)CCCOc1ccc(-c2c3nc(cc4ccc([nH]4)c(-c4ccc(OCCC[N+](C)(C)CCCN(C)C)cc4)c4nc(cc5ccc2[nH]5)C=C4)C=C3)cc1.[Cl-].[Cl-]` [Compound 8, 5,15-bis-(4-{3-[(3-Dimethylamino-propyl)-dimethylammonio]-propyloxy}-phenyl)-porphyrin dichloride], the Log reduction in the series with E. coli ATCC 25922 (setting [6]) was <1 (<10^−1); in the series with E. coli ATCC 25922 (setting [7]) it was 2 (10^−2); in the series with E. coli ATCC 25922 (setting [8]) it was <1 (<10^−1); with E. coli ATCC 25922 (photodynamic activity, 10 μM, illumination 15 min), >6 (>10^−6); in series [5] (setting [14]), <1 (<10^−1); in series [5] (setting [7]), <1 (<10^−1). Besides, the Log reduction in series [5] (setting [8]) was 3; in series [5] (photodynamic activity, 0.1 μM, illumination 15 min), 3 (10^−3); in series [5] (setting [15]), 6 (10^−6). For the same molecule, the “chemical stability under stress test” value in series [1] was “less stable than Compounds 10 and 12”. In addition, the “toxicity to bacterial cells compared to human skin cells” value in series [2] is recorded as “preferentially toxic to bacterial cells compared to human skin cells”. Further, the Survival in series [3] (setting [9]) stood at 100%; in series [3] (setting [10]), 68%; in series [3] (setting [11]) it was 100%; in series [3] (setting [12]), 12%; in series [3] (setting [13]), 3%; in series [4] (setting [10]), 97%. For the same molecule, the Survival in series [4] (setting [11]) was 98%; in series [4] (setting [12]), 33%; in series [4] (setting [13]) it was 0.5%. Moreover, the “dark toxicity against BAA-44” value in series [5] is “negligible”.
`C[N+](C)(C)CCCOc1ccc(-c2c3nc(cc4ccc([nH]4)c(-c4ccc(OCCC[N+](C)(C)C)cc4)c4nc(cc5ccc2[nH]5)C=C4)C=C3)cc1.[Cl-].[Cl-]` [Compound 10, 5,15-bis-[4-(3-Trimethylammonio-propyloxy)-phenyl]-porphyrin dichloride]: the “Concentration of Compound 10 required to obtain a 3 log reduction in cells (μM)” value in the series with E. coli ATCC 25922 (E. coli ATCC 25922) is 0.1 μM; in series [5] (Staphylococcus aureus ATCC BAA-44) it was 0.005 μM. In addition, the Log reduction in the series with E. coli ATCC 25922 (setting [14]) is on record as <1 (<10^−1); in the series on E. coli ATCC 25922 (setting [15]), >6 (>10^−6); in series [5] (setting [6]), <1 (<10^−1); in series [5] (setting [8]) it was >4 (>10^−4). In addition, in series [1], the “chemical stability under stress test” value is “good stability”. Besides, the “toxicity to bacterial cells compared to human skin cells” value in series [2] is “preferentially toxic to bacterial cells compared to human skin cells”. The Survival in series [3] (setting [9]) amounted to 100%; in series [3] (setting [10]), 91%; in series [3] (setting [11]), 80%; in series [3] (setting [12]) it was 8%; in series [3] (setting [13]), 0.5%; in series [4] (setting [9]), 100%. Further, the figures for the Survival in series [4] (setting [10]), in series [4] (setting [11]) and in series [4] (setting [12]) were 51%, 62% and 1.0%, respectively. Moreover, the bacteria killed in series [5] (BAA-44, 0.0025 μM, with light) amounted to 90%. The “dark toxicity against BAA-44” value in series [5] was “negligible”.
